In one series the test system is A549. In words: SRB protein staining tumor cell proliferation assay. The following applies: read-out: IC50(mean ± SD). The series is classed as cell-based. From the text: (§1) 1. Sulfonyl rhodamine B (SRB) protein staining assays were used to detect the inhibition of tumor cell proliferation of the compound.
For orientation: In SRB staining, fixed cells bind dye roughly in proportion to their protein.

The test system of the next series is BEL-7402. Described as above. Type of series: cell-based. The following applies: read-out: IC50(mean ± SD).
From the text: as §1

For a further series, the system named is HCT-15. Described as above. Type of series: cell-based. The following applies: read-out: IC50(mean ± SD).
From the text: as §1

The subject of another series is HL-60. The description is as above. Type of series: cell-based. The following applies: read-out: IC50(mean ± SD).
From the text: as §1

The subject of the next series is HO-8910. The description is as above. Type of series: cell-based. The following applies: read-out: IC50(mean ± SD).
From the text: as §1

The test system of a further series is MCF-7. The description is as above. The series is classed as cell-based.
From the text: as §1

The next series has as its system MDA-MB-435. The description is as above. The series is classed as cell-based. The following applies: read-out: IC50(mean ± SD).
From the text: as §1

For another series, the system named is MDA-MB-468. The description is as above. Type of series: cell-based. The following applies: read-out: IC50(mean ± SD).
From the text: as §1

Another series relates to MKN-28. The description is as above. Type of series: cell-based. As to conditions: read-out: IC50(mean ± SD).
From the text: as §1

A further series has as its system NCI-H23. Described as above. Type of series: cell-based. The following applies: read-out: IC50(mean ± SD).
From the text: as §1

In a further series the test system is SGC-7901. The series is described as above. The series is classed as cell-based. The following applies: read-out: IC50(mean ± SD).
From the text: as §1

A further series relates to SMMC-7721. Described as above. Type of series: cell-based. The following applies: read-out: IC50(mean ± SD).
From the text: as §1

The next series deals with HCT-116. The series is described as above. The series is classed as cell-based, human. As to conditions: read-out: IC50(mean ± SD).
From the text: as §1

Series [1] has as its system thirteen tumor cell lines. In words: SRB proliferation assay, panel of thirteen tumor cell lines. Type of series: cell-based. The following applies: mean over thirteen tumor cell lines.
From the text: as §1

Series [2] relates to human lung cancer SPC-A4 xenografts. Nature of the series: Human lung cancer SPC-A4 xenografts in nude mice. As to conditions: for Body weight (g) At the beginning / Body weight (g) At the end / RTV / TV (mm^3) d0 / TV (mm^3) d20 / T/C (%): q3w × 3, i.v. A general note: Xenograft models place foreign cells or tissue in a host animal.
The subject of series [3] is human rectal cancer HCT-116 xenografts. In words: Human rectal cancer HCT-116 xenografts in nude mice. As to conditions: for Body weight (g) At the end / RTV / TV (mm^3) d0 / TV (mm^3) d21 / Body weight (g) At the beginning / T/C (%): q3w × 3, i.v.
The test system of another series is K562 cell line. Nature of the series: Anti-multidrug resistance evaluation, parent cell line. The series is classed as cell-based. The following applies: Homo sapiens; K562 cells. An excerpt: (§2) 2. The multidrug resistance cell line K562/A02 and its parent K562 cell line were used to evaluate the anti-multidrug resistance of the CPT-4 active metabolite.
Series [4] concerns multidrug resistance cell line K562/A02. In words: Anti-multidrug resistance evaluation, multidrug resistance cell line. The series is classed as cell-based.
From the text: as §2

Setting [5] is: intravenously, three times per week.

The text below walks through data of patent publication US8685997B2, “Camptothecin derivatives and their use” (Shanghai Institute of Materia Medica, Chinese Academy of …, priority 2006, dated 2014).

Molecules are shown by their SMILES. Read-outs that look alike come from different tables or passages of the source.

In general, IC50 refers to the concentration at which inhibition is half-maximal. In the case of `CCc1c2c(nc3ccc(O)cc13)-c1cc3c(c(=O)n1C2)COC(=O)[C@]3(O)CC` [SN38], the half-inhibitory concentration (IC50) with A549 amounted to 5.9 ± 1.61 nM; in the series on BEL-7402 (BEL-7402) it was 136 ± 34.7 nM; with HCT-15, 6.13 ± 4.07 nM; in the series with HL-60, 6.7 ± 1.26 nM; with HO-8910 it was 1120 ± 171 nM; with MCF-7 (read-out: IC50(mean ± SD)), 73 ± 15.6 nM. Moreover, the IC50 worked out at 3.42 ± 1.53 nM with MDA-MB-435; 95.6 ± 36.9 nM in the series on MDA-MB-468; 303 ± 56 nM in the series on MKN-28; 234 ± 116 nM in the series on NCI-H23; 465 ± 75.3 nM in the series with SGC-7901; 379 ± 66.4 nM with SMMC-7721. The IC50 in the series with HCT-116 is 12.9 ± 5.4 nM; in [1] it was 218 nM.
On to `CCc1c2c(nc3ccc(OC(=O)N4CCC(N5CCCCC5)CC4)cc13)-c1cc3c(c(=O)n1C2)COC(=O)[C@]3(O)CC` [CPT-11, Irinotecan], for which, in series [2] (15 mg/kg), the “Body weight (g) At the beginning” value worked out at 18.2 g, the “Body weight (g) At the end” value is 18.7 g, the RTV is listed as 0.5 ± 0.5 and the “TV (mm^3) d0” value was 121 ± 34 mm^3. The “TV (mm^3) d20” value in [2] (15 mg/kg) is on record as 55 ± 39 mm^3. In [3] (15 mg/kg), the “Body weight (g) At the end” value is 18.3 g, the RTV is reported as 1.9 ± 1.1, the “TV (mm^3) d0” value is 101 ± 60 mm^3 and the “TV (mm^3) d21” value was determined as 171 ± 86 mm^3.
For the compound `CC[C@@]1(O)C(=O)OCc2c1cc1n(c2=O)Cc2cc3c(CN(C)C)c(O)ccc3nc2-1` [TPT, Topotecan], the IC50 in the series on A549 (Homo sapiens) worked out at 28.1 ± 6.8 nM; in the series on BEL-7402 (Homo sapiens, Bel-7402), 420 ± 79.7 nM; with HCT-15 (Homo sapiens) it was 14.4 ± 4.41 nM; in the series on HL-60 (Homo sapiens) it was 23.3 ± 1.32 nM; in the series with HO-8910, 1380 ± 44.4 nM; in the series with MCF-7 (Homo sapiens, MCF7, read-out: IC50(mean ± SD)), 387 ± 45.6 nM. The 50% inhibitory concentration (IC50) with MDA-MB-435 (Homo sapiens) amounted to 49.7 ± 6.05 nM; with MDA-MB-468 (Homo sapiens), 176 ± 97.5 nM; with MKN-28 (Homo sapiens), 412 ± 188 nM; in the series on NCI-H23 (Homo sapiens) it was 122 ± 36.3 nM; in the series with SGC-7901 (Homo sapiens), 489 ± 96.5 nM; in the series with SMMC-7721 (Homo sapiens), 1380 ± 172 nM. For the same compound, the IC50 in the series on HCT-116 (Homo sapiens) worked out at 38 ± 2.19 nM; in series [1] it was 379 nM.
Consider `COc1cccc2c1C(=O)c1c(O)c3c(c(O)c1C2=O)C[C@@](O)(C(=O)CO)C[C@@H]3O[C@H]1C[C@H](N)[C@H](O)[C@H](C)O1` [adriamycin], for which the 50% inhibitory concentration (IC50) in the series on K562 cell line was 493 nM; in [4] (Homo sapiens, K562/A02 cells), 69100 nM. Besides, the “Resistance Factor (RF)” value in series [4] (K562/A02 versus K562) is 140.24.
As for `C=CCc1c(OC(=O)N2CCC(N3CCCCC3)CC2)ccc2nc3c(cc12)Cn1c-3cc2c(c1=O)COC(=O)[C@]2(O)CC` [CPT-4, 10-((4′-piperidylpiperidine)carbonyloxy)-9-allylcamptothecin], in [2] (3.75 mg/kg), the “Body weight (g) At the beginning” value was determined as 17.8 g, the “Body weight (g) At the end” value was determined as 19.3 g, the RTV was determined as 19 ± 5.5 and the “T/C (%)” value is listed as 41.4%. Also, in series [2] (3.75 mg/kg), the “TV (mm^3) d0” value worked out at 104 ± 22 mm^3 and the “TV (mm^3) d20” value was determined as 1931 ± 533 mm^3. For the same compound, in series [2] (7.5 mg/kg), the “Body weight (g) At the beginning” value is listed as 17.5 g, the “Body weight (g) At the end” value turned out to be 19.3 g, the RTV was found to be 14 ± 5.5 and the “T/C (%)” value turned out to be 31.4%. Further, in series [2] (7.5 mg/kg), the “TV (mm^3) d0” value was found to be 108 ± 61 mm^3 and the “TV (mm^3) d20” value is 1153 ± 172 mm^3. Further, in series [2] (15 mg/kg), the “Body weight (g) At the beginning” value is listed as 17.3 g, the “Body weight (g) At the end” value is given as 17.5 g, the RTV was determined as 0.4 ± 0.7 and the “T/C (%)” value amounted to 0.88%. In addition, in series [2] (15 mg/kg), the “TV (mm^3) d0” value turned out to be 106 ± 28 mm^3 and the “TV (mm^3) d20” value amounted to 55 ± 99 mm^3. Moreover, in [2] (setting [5]), the “inhibition of growth of tumor xenografts” value was “can significantly inhibit the growth of tumor xenografts” and the “xenograft growth inhibition compared with CPT-11” value is reported as “equivalent to that of CPT-11”. In [3] (3.75 mg/kg), the “Body weight (g) At the beginning” value is on record as 20.2 g, the “Body weight (g) At the end” value was 17.0 g, the RTV is 8.4 ± 2.0 and the “T/C (%)” value stood at 18.9%. For the same compound, in series [3] (3.75 mg/kg), the “TV (mm^3) d0” value is 92 ± 27 mm^3 and the “TV (mm^3) d21” value was found to be 720 ± 75 mm^3. In addition, in series [3] (7.5 mg/kg), the “Body weight (g) At the beginning” value is 19.5 g, the “Body weight (g) At the end” value was 17.2 g, the RTV was determined as 3.8 ± 2.2 and the “T/C (%)” value is recorded as 8.31%. Besides, in [3] (7.5 mg/kg), the “TV (mm^3) d0” value was 94 ± 30 mm^3 and the “TV (mm^3) d21” value is on record as 289 ± 108 mm^3. In addition, in [3] (15 mg/kg), the “Body weight (g) At the beginning” value is given as 20.3 g, the “Body weight (g) At the end” value is recorded as 17.8 g, the RTV is 1.8 ± 0.5 and the “T/C (%)” value is recorded as 3.99%. In series [3] (15 mg/kg), the “TV (mm^3) d0” value is on record as 100 ± 20 mm^3 and the “TV (mm^3) d21” value is given as 172 ± 51 mm^3. Further, in [3] (setting [5]), the “inhibition of growth of tumor xenografts” value is given as “can significantly inhibit the growth of tumor xenografts” and the “xenograft growth inhibition compared with CPT-11” value is on record as “equivalent to that of CPT-11”.
Take `CC[C@@]1(O)C(=O)OCc2c1cc1n(c2=O)Cc2cc3c([N+](=O)[O-])cccc3nc2-1` [9NC, 9-nitrocamptothecin]: the IC50 with A549 was determined as 31.9 ± 3.72 nM; with BEL-7402 (BEL-7402), 58.8 ± 10.7 nM; in the series on HCT-15 it was 9.59 ± 0.48 nM; in the series with HL-60, 20.6 ± 2.56 nM; with HO-8910, 227 ± 40.8 nM; with MCF-7 (read-out: IC50(mean ± SD)) it was 62.6 ± 19.8 nM. Also, the IC50 in the series on MDA-MB-435 worked out at 18.5 ± 6.14 nM; in the series on MDA-MB-468, 64.9 ± 29.6 nM; in the series on MKN-28, 116 ± 6.48 nM; in the series with NCI-H23 it was 70.3 ± 14.6 nM; in the series with SGC-7901, 98 ± 6.87 nM; in the series on SMMC-7721, 1380 ± 25 nM. The IC50 in the series on HCT-116 was determined as 13.7 ± 1.4 nM; in [1] it was 167 nM.
